Consider 19 molecules from US9409870B2, “Compounds” (CHIESI FARMACEUTICI S.p.A., priority 2014, dated 2016).

Structures are written as SMILES. pIC50: −log10 of the molar value.

For this assay, the target named is T1, human neutrophil elastase (HNE) (Homo sapiens, UniProt P08246).
T1 construct: purchased Sigma E8140
T1 sequence (P08246 30-247 limits assumed): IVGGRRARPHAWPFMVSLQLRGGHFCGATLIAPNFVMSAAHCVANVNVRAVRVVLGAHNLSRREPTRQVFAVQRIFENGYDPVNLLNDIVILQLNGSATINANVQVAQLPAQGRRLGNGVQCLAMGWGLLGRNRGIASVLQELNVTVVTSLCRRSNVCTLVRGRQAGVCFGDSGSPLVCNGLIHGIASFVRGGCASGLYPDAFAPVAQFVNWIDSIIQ
Description: HNE enzyme activity assay (fluorogenic peptide substrate MeOSuc-Ala-Ala-Pro-Val-AMC). It counts as biochemical. The note with it: human leukocyte elastase 0.00072 U/mL, substrate 100 μM, 25° C., 30 minutes, pH 7.5; at least two separate experiments; read-out: FINE inhibition (HNE enzyme inhibition, IC50 values). How it is done:
Compounds of this invention were tested for potency in a human neutrophil elastase (HNE) enzyme activity assay.
Assays were performed in 96-well plates in a total assay volume of 100 μL. The final concentration of elastase enzyme (human leukocyte elastase, Sigma E8140) was 0.00072 U/mL. The peptide substrate (MeOSuc-Ala-Ala-Pro-Val-AMC, Calbiochem #324740) was used at a final concentration of 100 μM. The final concentration of DMSO was 1% in the assay buffer (0.05M Tris.HCl, 0.1M NaCl, 0.1M CaCl2, 0.0005% brij-35, pH 7.5). The enzymatic reaction was started by addition of the enzyme and incubated at 25° C. for 30 minutes. After incubation, the reaction was stopped by addition of soybean trypsin inhibitor (Sigma T9003) at a final concentration of 50 μg/well. Fluorescence was measured using a Molecular Devices fluorescence plate reader using 380 nm excitation and 460 nm emission wavelengths.
A dose response to each compound was performed and the effect of compound in each experiment was expressed as a percentage inhibition of the control enzyme fluorescence. Dose response curves were plotted and compound potency (IC50) was determined. Compounds were tested in at least two separate experiments.

In the case of `Cc1c(-c2ccnn2-c2ccc(C#N)cc2)n(C(=O)N[C@@H]2COC[C@H]2O)c(=O)n1-c1cccc(C(F)(F)F)c1` (racemic) [Example 48, Mixture of 5-[2-(4-Cyano-phenyl)-2H-pyrazol-3-yl]-4-methyl-2-oxo-3-(3-trifluoromethyl-phenyl)-2,3-dihydro-imidazole-1-carboxylic acid ((3R,4S)-4-hydroxy-tetrahydro-furan-3-yl)-amide and 5-[2-(4-Cyano-phenyl)-2H-pyrazol-3-yl]-4-methyl-2-oxo-3-(3-trifluoromethyl-phenyl)-2,3-dihydro-imidazole-1-carboxylic acid ((3S,4R)-4-hydroxy-tetrahydro-furan-3-yl)-amide], the pIC50 is above 9.00.
Consider `Cc1c(-c2ccnn2-c2ccc(C#N)cc2)[nH]c(=O)n1-c1cccc(C(F)(F)F)c1` [Example 1, 4-(5-{5-Methyl-2-oxo-1-[3-(trifluoromethyl)phenyl]-2,3-dihydro-1H-imidazol-4-yl}-1H-pyrazol-1-yl)benzonitrile], for which the pIC50 is 7.30 to 8.00.
As to `Cc1c(-c2ccnn2-c2ccc(C#N)cc2)n(CCCS(C)(=O)=O)c(=O)n1-c1cccc(C(F)(F)F)c1` [Example 2, 4-(5-{5-Methyl-3-[3-(methylsulfonyl)propyl]-2-oxo-1-[3-(trifluoromethyl)phenyl]-2,3-dihydro-1H-imidazol-4-yl}-1H-pyrazol-1-yl)benzonitrile], the pIC50 is 8.00 to 9.00.
To `Cc1c(-c2ccnn2-c2ccc(C#N)cc2)n(C)c(=O)n1-c1cccc(C(F)(F)F)c1` [Example 3, 4-(5-{3,5-Dimethyl-2-oxo-1-[3-(trifluoromethyl)phenyl]-2,3-dihydro-1H-imidazol-4-yl}-1H-pyrazol-1-yl)benzonitrile] belongs 8.00 to 9.00; to `CCOC(=O)n1c(-c2ccnn2-c2ccc(C#N)cc2)c(C)n(-c2cccc(C(F)(F)F)c2)c1=O` [Example 4, Ethyl-5-[1-(4-cyanophenyl)-1H-pyrazol-5-yl]-4-methyl-2-oxo-3-[3-(trifluoromethyl)phenyl]-2,3-dihydro-1H-imidazole-1-carboxylate], above 9.00; to `CC(=O)n1c(-c2ccnn2-c2ccc(C#N)cc2)c(C)n(-c2cccc(C(F)(F)F)c2)c1=O` [Example 5, 4-(5-{3-Acetyl-5-methyl-2-oxo-1-[3-(trifluoromethyl)phenyl]-2,3-dihydro-1H-imidazol-4-yl}-1H-pyrazol-1-yl)benzonitrile], 8.00 to 9.00.
Take `CCNC(=O)n1c(-c2ccnn2-c2ccc(C#N)cc2)c(C)n(-c2cccc(C(F)(F)F)c2)c1=O` [Example 6, 5-[1-(4-Cyanophenyl)-1H-pyrazol-5-yl]-N-ethyl-4-methyl-2-oxo-3-[3-(trifluoromethyl)phenyl]-2,3-dihydro-1H-imidazole-1-carboxamide]: the pIC50 is above 9.00.
With `Cc1c(-c2ccnn2-c2ccc(C#N)cc2)n(C(=O)NCCO)c(=O)n1-c1cccc(C(F)(F)F)c1` [Example 7, 5-[1-(4-Cyanophenyl)-1H-pyrazol-5-yl]-N-(2-hydroxyethyl)-4-methyl-2-oxo-3-[3-(trifluoromethyl)phenyl]-2,3-dihydro-1H-imidazole-1-carboxamide], the pIC50 was 8.00 to 9.00.
For the molecule `Cc1c(-c2ccnn2-c2ccc(C#N)cc2)n(C(=O)NCCCO)c(=O)n1-c1cccc(C(F)(F)F)c1` [Example 8, 5-[1-(4-Cyanophenyl)-1H-pyrazol-5-yl]-N-(3-hydroxypropyl)-4-methyl-2-oxo-3-[3-(trifluoromethyl)phenyl]-2,3-dihydro-1H-imidazole-1-carboxamide], the pIC50 is above 9.00.
As for `Cc1c(-c2ccnn2-c2ccc(C#N)cc2)n(C(=O)NCCCN(C)C)c(=O)n1-c1cccc(C(F)(F)F)c1` [Example 9, 5-[1-(4-Cyanophenyl)-1H-pyrazol-5-yl]-N-[3-(dimethylamino)propyl]-4-methyl-2-oxo-3-[3-(trifluoromethyl)phenyl]-2,3-dihydro-1H-imidazole-1-carboxamide], the pIC50 is 8.00 to 9.00.
On to `CCCC(=O)n1c(-c2ccnn2-c2ccc(C#N)cc2)c(C)n(-c2cccc(C(F)(F)F)c2)c1=O` [Example 10, 4-(5-{3-Butanoyl-5-methyl-2-oxo-1-[3-(trifluoromethyl)phenyl]-2,3-dihydro-1H-imidazol-4-yl}-1H-pyrazol-1-yl)benzonitrile], for which the pIC50 was above 9.00.
The value for `COCCNC(=O)n1c(-c2ccnn2-c2ccc(C#N)cc2)c(C)n(-c2cccc(C(F)(F)F)c2)c1=O` [Example 11, 5-[1-(4-Cyanophenyl)-1H-pyrazol-5-yl]-N-(2-methoxyethyl)-4-methyl-2-oxo-3-[3-(trifluoromethyl)phenyl]-2,3-dihydro-1H-imidazole-1-carboxamide] was above 9.00; that for `Cc1c(-c2ccnn2-c2ccc(C#N)cc2)n(C(=O)NCCN(C)C)c(=O)n1-c1cccc(C(F)(F)F)c1` [Example 12, 5-[1-(4-Cyanophenyl)-1H-pyrazol-5-yl]-N-[2-(dimethylamino)ethyl]-4-methyl-2-oxo-3-[3-(trifluoromethyl)phenyl]-2,3-dihydro-1H-imidazole-1-carboxamide] was 8.00 to 9.00.
For `Cc1c(-c2ccnn2-c2ccc(C#N)cc2)n(C(=O)NCCS(C)(=O)=O)c(=O)n1-c1cccc(C(F)(F)F)c1` [Example 13, 5-[1-(4-Cyanophenyl)-1H-pyrazol-5-yl]-4-methyl-N-[2-(methylsulfonyl)ethyl]-2-oxo-3-[3-(trifluoromethyl)phenyl]-2,3-dihydro-1H-imidazole-1-carboxamide], the pIC50 is above 9.00.
Turning to `Cc1c(-c2ccnn2-c2ccc(C#N)cc2)n(C(=O)NC2CCOC2)c(=O)n1-c1cccc(C(F)(F)F)c1` (stereo not shown) [Example 14, 5-[1-(4-Cyanophenyl)-1H-pyrazol-5-yl]-4-methyl-2-oxo-N-(tetrahydrofuran-3-yl)-3-[3-(trifluoromethyl)phenyl]-2,3-dihydro-1H-imidazole-1-carboxamide], the pIC50 was above 9.00.
Consider `Cc1c(-c2ccnn2-c2ccc(C#N)cc2)n(C(=O)N[C@H]2CCOC2)c(=O)n1-c1cccc(C(F)(F)F)c1` [Example 15, 5-[1-(4-Cyanophenyl)-1H-pyrazol-5-yl]-4-methyl-2-oxo-N-[(3S)-tetrahydrfuran-3-yl]-3-[3-(trifluoromethyl)phenyl]-2,3-dihydro-1H-imidazole-1-carboxamide], for which the pIC50 is above 9.00.
Regarding `Cc1c(-c2ccnn2-c2ccc(C#N)cc2)n(C(=O)N[C@@H]2CCOC2)c(=O)n1-c1cccc(C(F)(F)F)c1` [Example 16, 5-[1-(4-Cyanophenyl)-1H-pyrazol-5-yl]-4-methyl-2-oxo-N-[(3R)-tetrahydrofuran-3-yl]-3-[3-(trifluoromethyl)phenyl]-2,3-dihydro-1H-imidazole-1-carboxamide], the pIC50 was above 9.00.
`Cc1c(-c2ccnn2-c2ccc(C#N)cc2)n(C(=O)NCc2ccn(C)n2)c(=O)n1-c1cccc(C(F)(F)F)c1` [Example 17, 5-[1-(4-Cyanophenyl)-1H-pyrazol-5-yl]-4-methyl-N-[(1-methyl-1H-pyrazol-3-yl)methyl]-2-oxo-3-[3-(trifluoromethyl)phenyl]-2,3-dihydro-1H-imidazole-1-carboxamide]: the pIC50 is above 9.00.
Regarding `COC(=O)n1c(-c2ccnn2-c2ccc(C#N)cc2)c(C)n(-c2cccc(C(F)(F)F)c2)c1=O` [Example 18, Methyl-5-[1-(4-cyanophenyl)-1H-pyrazol-5-yl]-4-methyl-2-oxo-3-[3-(trifluoromethyl)phenyl]-2,3-dihydro-1H-imidazole-1-carboxylate], the pIC50 was above 9.00.

Broadly, the pIC50 is the negative decadic logarithm of the IC50, by convention in mol/L.
